Reference: patent publication US9593155B2, “Oxyntomodulin analogs” (priority 2009, dated 2017)
Read-outs that look alike come from different tables or passages of the source. *1 amine or outer side, *2 acyl side, *3 side chain or, on linkers, in order; H or OH if unused. Where a SMILES comes first, the peptide text is derived from it. Bridges are numbered along the chain shown (N, C = ends). Where no end group is shown, it is not given here. Side-chain parts run from the residue outwards. [ ]: non-standard residue; d: D form. The star is where a group is joined. X2 = CC(C)CCC[C@@H](C)[C@H]1CC[C@H]2[C@@H]3CC=C4C[C@@H](OC(=O)CCOCCOCCOCCOCCOCCOCCOCCOCCOCCOCCOCCOCCNC(=O)C*)CC[C@]4(C)[C@H]3CC[C@]12C; γGlu = O=C(O)[C@H](CCC(=O)[*:2])N[*:1]; Palmitoyl = CCCCCCCCCCCCCCCC(=O)*; Aib = CC(C)(N)C(=O)O

Key:
hGCGR [1] = biological target: T1, hGCGR (Homo sapiens, UniProt P47871); experiment: cell-based cAMP assay as described in WO2008101017 (Table 11), hGCGR
T1 sequence (P47871 26-477): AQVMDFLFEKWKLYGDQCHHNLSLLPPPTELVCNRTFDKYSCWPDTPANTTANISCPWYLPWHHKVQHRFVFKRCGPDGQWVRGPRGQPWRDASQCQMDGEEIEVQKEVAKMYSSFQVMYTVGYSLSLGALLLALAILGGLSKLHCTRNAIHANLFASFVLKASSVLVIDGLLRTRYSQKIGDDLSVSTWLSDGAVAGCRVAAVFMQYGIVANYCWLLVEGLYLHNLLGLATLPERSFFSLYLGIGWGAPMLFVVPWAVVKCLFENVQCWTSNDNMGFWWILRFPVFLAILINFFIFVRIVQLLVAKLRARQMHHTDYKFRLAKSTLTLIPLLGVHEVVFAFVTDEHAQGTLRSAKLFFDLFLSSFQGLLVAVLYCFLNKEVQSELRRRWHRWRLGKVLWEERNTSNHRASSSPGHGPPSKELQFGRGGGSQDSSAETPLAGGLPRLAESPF
Description: (§1) This example presents tables showing the in vitro potencies of various peptide analogs at the human GLP-1 receptor (hGLP-1R) and the human glucagon receptor (hGCGR).

hGLP-1R [2] = biological target: T2, hGLP-1R (Homo sapiens, UniProt P43220); experiment: cell-based cAMP assay as described in WO2008101017 (Table 11), hGLP-1R
T2 sequence (P43220 24-463): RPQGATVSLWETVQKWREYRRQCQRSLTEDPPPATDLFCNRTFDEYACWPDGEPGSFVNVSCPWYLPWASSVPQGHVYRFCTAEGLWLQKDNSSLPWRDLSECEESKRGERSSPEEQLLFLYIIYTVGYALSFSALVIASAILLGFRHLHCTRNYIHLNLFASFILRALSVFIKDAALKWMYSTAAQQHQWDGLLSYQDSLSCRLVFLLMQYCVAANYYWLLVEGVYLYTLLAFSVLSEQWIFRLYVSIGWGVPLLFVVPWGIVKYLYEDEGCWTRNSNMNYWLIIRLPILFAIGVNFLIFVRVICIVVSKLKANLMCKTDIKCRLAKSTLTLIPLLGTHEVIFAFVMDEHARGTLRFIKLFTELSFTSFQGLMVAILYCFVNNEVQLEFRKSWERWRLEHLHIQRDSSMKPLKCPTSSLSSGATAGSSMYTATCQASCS
Description: as §1

hGCGR [3] = biological target: T1, hGCGR; experiment: ex vivo perfused liver glycogenolysis assay (13C NMR), humanized GCGR mice; conditions: at 300 nM
Protocol: Humanized GCGR mice (C57B/6N) were anesthetized (Nembutal IP, 50 mg/kg) in the middle of the dark cycle. The portal vein was then cannulated and the liver was excised and perfused with a preoxygenated Krebs-Henseleit bicarbonate buffered solution for 5-10 minutes which initially was not recirculated to wash out any endogenous substrates. […] A ^13C NMR-visible pool of glycogen was then created by the addition of the gluconeogenic substrate [2-^13C] Pyruvate and ammonium chloride (˜7 mM and 1 mM, respectively) to the perfusate, and the amount of ^13C glycogen contained in the liver was monitored in real time via the Cl resonance of the glucosyl units in glycogen.
Mice expressing human GCGR were anesthetized (Nembutal IP, 50 mg/kg) at approximately the middle of the dark cycle. The portal vein was then cannulated and tied off and the liver was excised. The liver was then placed into a 20 mm NMR tube and the initial Krebs solution was exchanged for a Krebs-BSA perfusate, which was recirculated. ^31P NMR spectroscopy was performed initially to examine the ATP and inorganic phosphate (Pi) levels in the liver which can be used to assess hepatic viability. […] Pyruvate+NH4Cl and the amount of glycogen contained in the liver was monitored in real time via the Cl resonance of the glucosyl units in glycogen.

GCGR = biological target: T3, GCGR (Mus musculus, UniProt Q61606); experiment: in vivo GCGR receptor occupancy competition assay with 125I-glucagon in wild-type mice
T3 construct: from tissue; host or cells: liver of wild-type mice, dosed in vivo
T3 sequence (Q61606 27-485): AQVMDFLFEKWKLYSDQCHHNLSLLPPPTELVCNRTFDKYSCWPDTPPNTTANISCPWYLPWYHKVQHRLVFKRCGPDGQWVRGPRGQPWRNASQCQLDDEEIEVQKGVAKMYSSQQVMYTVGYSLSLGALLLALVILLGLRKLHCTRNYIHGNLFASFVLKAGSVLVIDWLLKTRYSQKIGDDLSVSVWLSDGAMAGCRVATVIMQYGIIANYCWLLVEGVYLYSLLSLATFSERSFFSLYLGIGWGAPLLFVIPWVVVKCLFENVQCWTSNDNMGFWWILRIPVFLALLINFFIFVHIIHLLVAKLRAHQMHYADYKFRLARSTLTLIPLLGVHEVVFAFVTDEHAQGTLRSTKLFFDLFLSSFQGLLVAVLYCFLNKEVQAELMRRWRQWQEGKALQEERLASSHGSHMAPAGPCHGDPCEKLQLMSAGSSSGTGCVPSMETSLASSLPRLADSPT

[4] = 14 day chronic infusion food intake and body weight study in DIO mice; type: in vivo, mouse; conditions: for Cumulative food intake change / Cumulative weight change: 14 day chronic infusion
Description: Lean or diet-induced obese 10-12-week-old male C57BL/6 mice were purchased from Taconic Farms (Germantown, N.Y.) and housed in individual Tecniplast cages in a conventional SPF facility.

hGCGR [5] = biological target: T1, hGCGR; experiment: fluorescence cell based cAMP assay, CHO cells stably expressing GCGR
Protocol: (§2) We initially screened peptides in fluorescence cell based assays that measure production of cyclic-AMP (cAMP), using CHO cell lines stably expressing either recombinant human GLP-1R or human GCGR. Determination of Mouse and human GLP-1R and GCGR Agonist Activity was essentially as follows. CHO cells stably expressing mouse or human GLP-1R or GCGR were grown in Iscove's Modified Dulbecco's Medium (IMDM), 10% FBS, 1 mM L-glutamine, penicillin-streptomycin (100 μ/mL) and 750 μg G418/mL for three-four days before harvesting using Enzymefree Dissociation Media (EFDM, Specialty Media). […] The assay was terminated with the addition of the LANCE kit Detection buffer as per the manufacturer's instructions. The plates were held an additional hour at room temperature, then increasing cAMP levels were detected by a decrease in TR-FRET signal as measured in an EnVision counter (PerkinElmer) in comparison to a standard curve of cAMP as per the manufacturer's instructions. Data were analyzed using the linear and nonlinear regression analysis software, GraphPad Prism.
(§3) The in vitro potencies shown in Table 10 or Table 11 were determined from the results of assays that were similar to either the cell-based cAMP assays described herein above (Table 10) or the cell-based cAMP assays described in International Published Application No. WO2008101017, which is incorporated herein in its entirety, in particular the cell-based cAMP assays described therein (Table 11).

[6] = hyperglycemic clamp in DIO mice; type: in vivo, mouse; conditions: ~16 μg/kg/min i.v., last 60 minutes
Protocol: DIO mice (16 wk on high fat diet) were anesthetized with xylazine and ketamine and catheterized through the right internal jugular vein 3 days before the in vivo studies. […] The venous catheter was used for infusion, and blood samples were collected from the tail vein. Each animal was monitored for food intake and weight gain after surgery to ensure complete recovery. […] Briefly, plasma glucose was measured by OneTouch glucometer every 10 minutes during the 2 hour period. Twenty-five percent glucose (D-glucose, Sigma) was infused i.v. and the rate was adjusted periodically to clamp the plasma glucose levels (˜20 mM). […] Glucose infusion rate (GIR) was adjusted to body weight.

[7] = intraperitoneal glucose tolerance test (IPGTT) in lean C57BL/6N mice; type: in vivo, mouse
Protocol: Intraperitoneal glucose tolerance test. Male C57BL/6N mice were distributed by weight into treatment groups (n=6/group). […] 10 min prior the glucose challenge. Blood glucose concentrations were determined at T=−10 min and T=0 min (baseline). Mice were then immediately challenged, intraperitoneally, with D-glucose (2 g/kg). One group of vehicle-treated mice was challenged with 0.9% saline as a
negative control. Blood glucose levels were determined from tail bleeds taken at 20, 40 and 60 min after D-glucose challenge. […] Percent inhibition values for each treatment were generated from the AUC data normalized to the saline-challenged controls. Areas under the curve (AUC) for glucose (AUC glucose) was calculated using the trapezoidal method. […] Statistical analysis was done using unpaired 2-tailed Student's t test. P values<0.05 were reported as significant.

[8] = pI of the peptide analogs
hGLP-1R [9] = biological target: T2, hGLP-1R; experiment: fluorescence cell based cAMP assay, CHO cells stably expressing GLP-1R; design: expressed in transfected cells; conditions: hGLP-1R EC50, Table 10
Protocol: as §2, with “The” for “The assay was terminated with the addition of the LANCE kit Detection buffer as per the manufacturer's instructions. The”
as §3

CCCCCCCCCCCCCC(=O)N[C@@H](CCC(=O)N[C@@H](CCC(=O)NCCCC[C@H](NC(=O)[C@H](CC(=O)O)NC(=O)[C@H](CO)NC(=O)[C@@H](NC(=O)[C@H](Cc1ccccc1)NC(=O)[C@@H](NC(=O)CNC(=O)[C@H](CCC(N)=O)NC(=O)[C@@H](CO)NC(=O)[C@@H](N)Cc1c[nH]cn1)[C@@H](C)O)[C@@H](C)O)C(=O)N[C@@H](CO)C(=O)N[C@@H](CCCCN)C(=O)N[C@@H](Cc1ccc(O)cc1)C(=O)N[C@@H](CC(C)C)C(=O)N[C@@H](CC(=O)O)C(=O)NC(C)(C)C(=O)N[C@@H](CCCNC(=N)N)C(=O)N[C@@H](CCCNC(=N)N)C(=O)N[C@@H](C)C(=O)N[C@@H](CCC(N)=O)C(=O)N[C@@H](CC(=O)O)C(=O)N[C@@H](Cc1ccccc1)C(=O)N[C@H](C(=O)N[C@@H](CCC(N)=O)C(=O)N[C@@H](Cc1c[nH]c2ccccc12)C(=O)N[C@@H](CC(C)C)C(=O)N[C@@H](CCSC)C(=O)N[C@@H](CC(N)=O)C(=O)N[C@H](C(=O)N[C@@H](CCCCN)C(=O)N[C@@H](CCC(N)=O)C(=O)O)[C@@H](C)O)C(C)C)C(=O)O)C(=O)O [MM121]
EC50 (hGCGR [1]): 0.006 nM

CCCCCCCCCCCCCCCC(=O)N[C@@H](CCC(=O)N[C@@H](CCC(=O)NCCCC[C@H](NC(=O)[C@H](CC(=O)O)NC(=O)[C@H](CO)NC(=O)[C@@H](NC(=O)[C@H](Cc1ccccc1)NC(=O)[C@@H](NC(=O)CNC(=O)[C@H](CCC(N)=O)NC(=O)[C@@H](CO)NC(=O)[C@@H](N)Cc1c[nH]cn1)[C@@H](C)O)[C@@H](C)O)C(=O)N[C@@H](CO)C(=O)N[C@@H](CCCCN)C(=O)N[C@@H](Cc1ccc(O)cc1)C(=O)N[C@@H](CC(C)C)C(=O)N[C@@H](CC(=O)O)C(=O)NC(C)(C)C(=O)N[C@@H](CCCNC(=N)N)C(=O)N[C@@H](CCCNC(=N)N)C(=O)N[C@@H](C)C(=O)N[C@@H](CCC(N)=O)C(=O)N[C@@H](CC(=O)O)C(=O)N[C@@H](Cc1ccccc1)C(=O)N[C@H](C(=O)N[C@@H](CCC(N)=O)C(=O)N[C@@H](Cc1c[nH]c2ccccc12)C(=O)N[C@@H](CC(C)C)C(=O)N[C@@H](CCSC)C(=O)N[C@@H](CC(N)=O)C(=O)N[C@H](C(=O)N[C@H](CCCCN)C(=O)N[C@@H](CCC(N)=O)C(=O)O)[C@@H](C)O)C(C)C)C(=O)O)C(=O)O [MM103]
EC50 (hGCGR [1]): 0.005 nM | EC50 (hGLP-1R [2]): 0.026 nM

CCCCCCCCCCCCCCCCCC(=O)N[C@@H](CCC(=O)N[C@@H](CCC(=O)NCCCC[C@H](NC(=O)[C@H](CC(=O)O)NC(=O)[C@H](CO)NC(=O)[C@@H](NC(=O)[C@H](Cc1ccccc1)NC(=O)[C@@H](NC(=O)CNC(=O)[C@H](CCC(N)=O)NC(=O)[C@@H](CO)NC(=O)[C@@H](N)Cc1c[nH]cn1)[C@@H](C)O)[C@@H](C)O)C(=O)N[C@@H](CO)C(=O)N[C@@H](CCCCN)C(=O)N[C@@H](Cc1ccc(O)cc1)C(=O)N[C@@H](CC(C)C)C(=O)N[C@@H](CC(=O)O)C(=O)NC(C)(C)C(=O)N[C@@H](CCCNC(=N)N)C(=O)N[C@@H](CCCNC(=N)N)C(=O)N[C@@H](C)C(=O)N[C@@H](CCC(N)=O)C(=O)N[C@@H](CC(=O)O)C(=O)N[C@@H](Cc1ccccc1)C(=O)N[C@H](C(=O)N[C@@H](CCC(N)=O)C(=O)N[C@@H](Cc1c[nH]c2ccccc12)C(=O)N[C@@H](CC(C)C)C(=O)N[C@@H](CCSC)C(=O)N[C@@H](CC(N)=O)C(=O)N[C@H](C(=O)N[C@@H](CCCCN)C(=O)N[C@@H](CCC(N)=O)C(=O)O)[C@@H](C)O)C(C)C)C(=O)O)C(=O)O [MM132]
EC50 (hGCGR [1]): 0.004 nM

HSEGTFTSDYSKYLDSRRAQDFVQWLMNTKRNRNNIA [OXM-Q3E]
glycogenolysis induced (hGCGR [3]): about 58% | GCGR occupancy (GCGR; subcutaneous, dose not given): 0% | ΔBW ([4]; 5 mg/kg): −2.4% | Cumulative food intake change ([4]; 0.5 mg/kg): 215 kcal | Cumulative weight change ([4]; 0.5 mg/kg): -0.21 g | Cumulative food intake change ([4]; 5 mg/kg): 207 kcal | Cumulative weight change ([4]; 5 mg/kg): -0.21 g | EC50 (hGCGR [5]; GCGR EC50, Table 4): 1630 nM | GIR0-60 (glucose infusion rate) [6]: 55 ± 4 mg/kg/min | effectiveness at reducing glucose relative to native peptide ([7]; comparison of the minimal effective dose, IPGTT): about 10 fold | blood glucose excursion in IPGTT ([7]; lean C57BL/6N mice, s.c.): significantly reduced blood glucose excursion in a dose-dependent manner

glucagon [reference compound]
GCGR occupancy (GCGR; 1.5 mpk): 84%

CCCCCCCCCCCCCCCC(=O)N[C@@H](CCC(=O)N[C@@H](CCC(=O)NCCCC[C@H](NC(=O)[C@H](CC(=O)O)NC(=O)[C@H](CO)NC(=O)[C@@H](NC(=O)[C@H](Cc1ccccc1)NC(=O)[C@@H](NC(=O)CNC(=O)[C@H](CCC(N)=O)NC(=O)[C@@H](CO)NC(=O)[C@@H](N)Cc1c[nH]cn1)[C@@H](C)O)[C@@H](C)O)C(=O)N[C@@H](CO)C(=O)N[C@@H](CCCCN)C(=O)N[C@@H](Cc1ccc(O)cc1)C(=O)N[C@@H](CC(C)C)C(=O)N[C@@H](CC(=O)O)C(=O)NC(C)(C)C(=O)N[C@@H](CCCNC(=N)N)C(=O)N[C@@H](CCCNC(=N)N)C(=O)N[C@@H](C)C(=O)N[C@@H](CCC(N)=O)C(=O)N[C@@H](CC(=O)O)C(=O)N[C@@H](Cc1ccccc1)C(=O)N[C@H](C(=O)N[C@@H](CCC(N)=O)C(=O)N[C@@H](Cc1c[nH]c2ccccc12)C(=O)N[C@@H](CC(C)C)C(=O)N[C@@H](CCSC)C(=O)N[C@@H](CC(N)=O)C(=O)N[C@H](C(=O)N[C@@H](CCCCN)C(=O)N[C@@H](CCC(N)=O)C(=O)O)[C@@H](C)O)C(C)C)C(=O)O)C(=O)O [OXM418]
EC50 (hGCGR [5]; hGCGR + 20% plasma EC50, Table 10, 20% plasma): 0.3 nM | EC50 (hGLP-1R [2]): 0.026 nM | pI ([8]; Table 10): 5.5

CSCC[C@H](NC(=O)[C@H](CC(C)C)NC(=O)[C@H](Cc1c[nH]c2ccccc12)NC(=O)[C@H](CCC(N)=O)NC(=O)[C@@H](NC(=O)[C@H](Cc1ccccc1)NC(=O)[C@H](CC(=O)O)NC(=O)[C@@H]1CCCCNC(=O)CC[C@H](NC(=O)[C@H](CC(=O)O)NC(=O)[C@H](CC(C)C)NC(=O)[C@H](Cc2ccc(O)cc2)NC(=O)[C@H](CCCCN)NC(=O)[C@H](CO)NC(=O)[C@H](Cc2ccc(O)cc2)NC(=O)[C@H](CC(=O)O)NC(=O)[C@H](CO)NC(=O)[C@@H](NC(=O)[C@H](Cc2ccccc2)NC(=O)[C@@H](NC(=O)CNC(=O)[C@H](CCC(N)=O)NC(=O)C(C)(C)NC(=O)[C@@H](N)Cc2c[nH]cn2)[C@@H](C)O)[C@@H](C)O)C(=O)N[C@@H](CCCNC(=N)N)C(=O)N[C@@H](CCCNC(=N)N)C(=O)N[C@@H](C)C(=O)N1)C(C)C)C(=O)N[C@@H](CC(N)=O)C(=O)N[C@H](C(=O)N[C@@H](CCCCN)C(=O)N[C@@H](CCC(=O)N[C@@H](CCC(=O)N[C@@H](CSCC(=O)NCCOCCOCCOCCOCCOCCOCCOCCOCCOCCOCCOCCOCCC(=O)O[C@H]1CC[C@@]2(C)C(=CC[C@H]3[C@@H]4CC[C@H]([C@H](C)CCCC(C)C)[C@@]4(C)CC[C@@H]32)C1)C(=O)O)C(=O)O)C(=O)O)[C@@H](C)O [OXM395] (H-H[Aib]QGTFTSDYSKYLDERRAKDFVQWLMNTK[γGlu][γGlu]C(X2)-OH; lactam 16-20; N-terminus assumed)
EC50 (hGLP-1R [9]): 0.7 nM | pI [8]: about 5.4 | pI ([8]; Table 10): 5.4

CCCCCCCCCCCCCCCC(=O)N[C@@H](CCC(=O)N[C@@H](CCC(=O)NCCCC[C@H](NC(=O)[C@H](CC(=O)O)NC(=O)[C@H](CO)NC(=O)[C@@H](NC(=O)[C@H](Cc1ccccc1)NC(=O)[C@@H](NC(=O)CNC(=O)[C@H](CCC(N)=O)NC(=O)[C@@H](CO)NC(=O)[C@@H](N)Cc1c[nH]cn1)[C@@H](C)O)[C@@H](C)O)C(=O)N[C@@H](CO)C(=O)N[C@@H](CCCCN)C(=O)N[C@@H](Cc1ccc(O)cc1)C(=O)N[C@@H](CC(C)C)C(=O)N[C@@H](CC(=O)O)C(=O)N[C@@H](CCC(=O)O)C(=O)N[C@@H](CCCNC(=N)N)C(=O)N[C@@H](CCCNC(=N)N)C(=O)N[C@@H](C)C(=O)N[C@@H](CCC(N)=O)C(=O)N[C@@H](CC(=O)O)C(=O)N[C@@H](Cc1ccccc1)C(=O)N[C@H](C(=O)N[C@@H](CCC(N)=O)C(=O)N[C@@H](Cc1c[nH]c2ccccc12)C(=O)N[C@@H](CC(C)C)C(=O)N[C@@H](CCSC)C(=O)N[C@@H](CC(N)=O)C(=O)N[C@H](C(=O)N[C@@H](CCCCN)C(=O)N[C@@H](CCC(N)=O)C(=O)O)[C@@H](C)O)C(C)C)C(=O)O)C(=O)O [MM111] (H-H[dS]QGTFTSDK([γGlu-γGlu-Palmitoyl])SKYLDERRAQDFVQWLMNTKQ-OH)
EC50 (hGCGR [1]): 0.005 nM | EC50 (hGLP-1R [2]): 0.007 nM
